Row | SMILES | melting point
1 | CCCCCCCCCCCCCCCCN(C(=O)C(F)(F)F)c1ccc(C(=O)Nc2ccc(C(=O)OCC)cc2)cc1 | 91 to 93 °C
2 | Cc1cc(=O)n2c3c(cc(C(O)(C(F)(F)Cl)C(F)(F)Cl)cc13)CC2 | 256 to 257 °C
3 | CC(=O)N(C)c1cccnc1S(N)(=O)=O | 181 to 185 °C
4 | O=C1CN2CCCCC2=NN1c1ccc(Cl)cc1Cl | 115 to 117 °C
5 | CC1CCN(C(=O)[C@H]2CC=CC[C@@H]2NC(=O)C(F)(F)F)CC1 | 169 to 170 °C
6 | CCc1sc2ccccc2c1C(=O)O | 136 °C
7 | CCCCCCCCCCCCCCCCCCCCCCOC(=O)P(=O)(O)O | 92 to 93 °C
8 | CCOCc1nc2c(N)nc3ccccc3c2n1CCCON=C(C)C | 109 to 111 °C
9 | O=c1c2ccccc2nc(-c2cc(-c3ccncc3)c(N3CCOCC3)s2)n1-c1ccccc1Cl | 179 to 180 °C
10 | COc1cc(OC)c(C2CCN(C)CC2=O)c(OC)c1 (single isomer, unassigned; (+)) | 110 to 112 °C
11 | CCc1c(C(=O)O)ccc(OC)c1C | 180 °C
12 | NC(=O)COc1cccc(N)c1 | 107 to 111 °C
13 | CC=CCCCn1cnc2c1c(=O)n(C)c(=O)n2C | 58 to 64 °C
14 | Nc1nc2ccc(OCC(F)(F)C(F)(F)F)cc2s1 | 147 °C
15 | CCCCNc1c(C(=O)OCC)c(C)nc2[nH]c(O)nc12 | 249 to 252 °C
16 | CCN(CC)C(=O)C(C#N)=Cc1cc(O)c(O)c([N+](=O)[O-])c1 | 156 to 160 °C
17 | O=Cc1ccc(-c2ncc(Cl)cn2)cc1 | 186 °C
18 | CNC(=S)N1CCc2[nH]cnc2C1c1ccccc1 (centres undefined) | 228 °C
19 | COC(=O)c1cc(Cl)c(N=C2NCCN2)c(Cl)c1 | 229 to 231 °C
20 | CCNC(=O)c1cc2c(Cl)ccc(-n3c(=O)cc(C(F)(F)F)n(C)c3=O)c2o1 | 225 to 226 °C
21 | COc1cc(C=C2C(=O)NC(=O)N2C)cc(OC)c1O | 194 to 196 °C
22 | CC(=O)Nc1c(C)c2c(c(C)c1[N+](=O)[O-])OC(C)(C)C2 | 203 to 204 °C

Row | SMILES | melting point
23 | CCC(CC)C(NS(=O)(=O)c1ccc(Cl)s1)c1ncnn1Cc1ccc(OC)cc1 (centres undefined) | 136 to 137 °C
24 | COc1cc(-c2nc(N)sc2CCC2CCCCC2)c(OC)cc1C | 112 °C
25 | O=S(=O)(C1CC1)C(F)(F)C(O)(Cn1cncn1)c1ccc(F)cc1 (single isomer, unassigned; (+)) | 144 to 145 °C
26 | c1ccc(N2CCN(c3nsc4nc5ccccc5n34)CC2)nc1 | 176 to 178 °C
27 | CCCCCCCc1cc2cc(C(=O)OCC)ccc2[nH]1 | 66 to 69 °C
28 | Cc1ncc(CN2CCC(COCc3ccccc3)CC2)c(N)n1 | 106 to 108 °C
29 | CCCc1cc(C(=O)NC(C)(C)C)no1 | 34 to 37 °C
30 | CC(C)(C)OC(=O)Nc1cc(OC(C)(C)C)c(I)cc1[N+](=O)[O-] | 94 °C
31 | Cc1ccccc1-c1c(NC(=O)Nc2c(C(C)C)cccc2C(C)C)oc2ccc(Cl)cc12 | 240 °C
32 | CC(Cc1c[nH]c2ccccc12)(NC(=O)OC12CC3CC(CC(C3)C1)C2)C(=O)O (racemic) | 206 to 218 °C
33 | CCOC(=O)C(=O)CC(=O)c1cccc(Cl)c1Cl | 57 to 58 °C
34 | CCCCc1cn(CCCC)c(=O)n1Cc1ccc(-c2ncccc2-c2nnn[nH]2)cc1 | 178 to 180 °C
35 | CC(C)(C)OC(=O)NC1CCCCCC=CC2CC2(C(=O)NS(=O)(=O)C2CC2)NC(=O)C2CC(OC(=O)c3ccc(F)cc3)CN2C1=O (centres undefined) | 154 to 156 °C
36 | c1ccc(N=C(NC(=Nc2ccccc2)N2CCCCO2)c2ccccc2)cc1 | 187 to 190 °C
37 | CCCC1=C(C(=O)OCC)C(c2cccc3ccsc23)c2c[nH]nc2N1 (centres undefined) | 166 °C
38 | O=[N+]([O-])c1cc(NCc2c(F)c(F)c(C(F)(F)F)c(F)c2F)ccc1O | 126 to 128 °C
39 | CCN1C(=O)OC(C)(C)c2cc(-c3cc(F)cc(C#N)c3)ccc21 | 154 to 155 °C
40 | CC(C)(C)OC(=O)CONC(=O)c1ccc(C(=O)C(C)(C)C)cc1 | 87 to 88 °C
41 | CC1(C)CC(=O)c2c(S(C)(=O)=O)sc(C(=O)O)c2C1 | 208 °C
42 | CCSC(C)C(=O)N(CC)c1c[nH]nc1Cl (centres undefined) | 78 to 80 °C
43 | NC(=O)c1cccc(-c2nc3sccn3c2-c2ccnc(N[C@@H]3CCCNC3)n2)c1 | 202 to 205 °C
44 | CN1CCN(Cc2ccc(COc3cccc4c3CN(C3CCC(=O)NC3=O)C4=O)cc2)CC1 (centres undefined) | 188 to 190 °C

Row | SMILES | melting point
45 | O=Cc1ccn(-c2cc3c(cc2C(F)(F)F)[nH]c(=O)c(=O)n3CC(=O)O)c1 | > 250 °C
46 | CCN(CC)CCNS(=O)(=O)c1ccc(Nc2ncnc3ccc(Cl)cc23)cc1 | 110 to 113 °C
47 | CC12CCCCC1(O)CCC1C2CCC2(C)C1CC13OCCOC12OCCO3 (centres undefined) | 160 to 162 °C
48 | O=[N+]([O-])c1ccc(-n2nc3c(c2O)-c2ccccc2CC3)nc1 | 226 to 227 °C
49 | COCCn1c(=O)[nH]c2ncc(-c3ccc(O)cc3)nc21 | 236 to 237 °C
50 | CCC(=O)Nc1cc(-n2cccn2)nc(-c2ccc(Cl)o2)n1 | 189 to 190 °C
51 | O=C(CCCCC(=O)N1CCN(c2cnccn2)CC1)c1ccc(Cl)cc1 | 138 to 140 °C
52 | Nc1nnc(-c2cc(Cl)cc(Cl)c2O)s1 | 268 °C
53 | CCCCCCCCCCCCCCCCOCC(CO)OCOC(c1ccccc1)(c1ccccc1)c1ccccc1 (centres undefined) | 38 °C
54 | COc1cc(Cl)cc2c1OC(C)(COS(=O)(=O)c1ccc(C)cc1)C2 (centres undefined) | 113 to 115 °C
55 | N#Cc1c(NC2CCCCC2)cccc1-c1ccccc1 | 125 to 126 °C
56 | CC(=O)CCCCOCCCc1ccc(N2CCCC2)cc1 | 30 to 31 °C
57 | Cc1cc(C#N)c(C)c(C(=O)Nc2ccc(C#N)cn2)n1 | 216 °C
58 | COC(=O)c1ccc(N)cc1C(=O)OC | 83 to 85 °C
59 | CCOC(=O)CCNCC(O)COc1cccc(OC)c1 (centres undefined) | 72 °C
60 | Fc1ccc2[nH]cc(C3=CCN(CC4COc5ccc6ncccc6c5O4)CC3)c2c1 (centres undefined) | 184 °C
61 | N#Cc1ccc(N2CCC(N3CCCC3)CC2)cc1 | 88 to 89 °C
62 | CCN(CC)C[C@@H]1CCCN1CC(=O)N1c2ccccc2C(=O)Nc2cccnc21 | 192 to 193 °C
63 | c1ccc(Nc2nnn[nH]2)cc1 | 208 to 209 °C
64 | Nc1cc(N2CC(c3cccs3)OC2=O)ccn1 (centres undefined) | 151 to 153 °C

Continued, values first:

Row | melting point | SMILES
65 | 133 °C | O=C(NCc1ccccc1Cl)c1ccc(Br)cc1
66 | 185 to 187 °C | CC1(C)CC(C)(C)c2cc(NC(=O)c3ccc(O)cc3)ccc21
67 | 184 to 185 °C | O=c1c(N2CCCCC2)nc2ccccc2n1-c1ccc(Cl)cc1
68 | 173 to 174 °C | CCCCCc1cc2c(cc1/C=C/c1ccc(C(=O)O)cc1)C(C)(C)CCC2(C)C
69 | 206 to 207 °C | Cc1cccc(C)c1NC(=O)c1ccc(C(F)(F)F)cc1
70 | 154 °C | CCOC(=O)c1c(C)n(C)c(-c2ccccc2)cc1=O
71 | 137 to 139 °C | COc1ccc(C(CC2=NOC(=O)C2)c2ccccc2)cc1OC1CCCC1 (centres undefined)
72 | 206 °C | O=C1NC(=O)C(c2ccccc2)=C1Nc1ccc(OC(F)(F)F)cc1
73 | 144 to 146 °C | COc1ccc2c(c1)CC(Nc1ccc(O)cc1)C2 (centres undefined)
74 | 202 °C | COc1cc(Nc2nccc(-c3cn(S(=O)(=O)c4ccccc4)c4ccccc34)n2)cc(OC)c1OC
75 | 230 to 231 °C | CN(C)Cc1ccc2cc(NC(=O)c3ccc(-c4ccc(Cl)cc4)cc3)ccc2c1
76 | 60.5 to 62 °C | COCc1cc(C2=C(Cl)CCN(C(=O)c3ccccc3)C2)no1
77 | 219 to 223 °C | O=C(Oc1cc(F)ccc1[N+](=O)[O-])c1cc2ccccc2oc1=O
78 | 76 to 77.5 °C | CCCCCS(=O)(=O)NC(=O)CCc1ccc(OCCOCCOC)cc1Oc1ncc(C(F)(F)F)cc1Cl
79 | 183 to 185 °C | C#CCOc1c(-c2ccccc2)c(=O)[nH]c2cc(Cl)ccc12
80 | 135 to 149 °C | COc1ccc(-c2cc(=S)n(Cc3ccccc3)nc2-c2ccc(OC)cc2)cc1
81 | 68 to 72 °C | CC(CCC(=O)O)(c1ccc(OCc2ccc3ccccc3n2)cc1)c1ccc(OCc2nc3ccccc3s2)cc1 (centres undefined)
82 | 105 to 108 °C | COc1cc(NC(=O)Nc2ccc(C3CCN(C(=O)Nc4ccc(OCC(O)CO)cc4Cl)CC3)cc2)cc(OC)c1 (centres undefined)

Row | melting point | SMILES
83 | 13.3 °C | FC(F)c1ccccc1C=C1c2ccccc2CCc2ccccc21
84 | 205 to 210 °C | CC(C)(C)c1cc(C(=O)Nc2cccc(SCc3cncc4ccccc34)c2)ccc1O
85 | 191 to 192 °C | O=C(O)C(=O)c1ccc(OCCOc2cc3ccccc3cc2O)cc1
86 | 177 to 178 °C | N#Cc1ccc(N(Cc2ccc(OS(N)(=O)=O)cc2)n2cnnc2)cc1-c1ccco1
87 | 150 to 153 °C | CC(C)(CNC(=O)/C(CCO)=C(\c1ccc(Cl)cc1)c1ccc(S(C)(=O)=O)cc1)SN=O
88 | 163 °C | CCc1ccc(S(=O)(=O)NCc2ccccc2-c2ccccc2C(=O)NCCc2ccccc2)cc1
89 | 163 to 164 °C | COc1cc2c(cc1OCc1ccccc1)CCN(C(=O)c1ccccc1OC)C2=O
90 | 184 to 185 °C | CCCOc1ccc(C=CC(=O)N2CCN(C)CC2)cc1-c1nc2c(C)cccc2c(=O)[nH]1
91 | 151 to 153 °C | CC(C)Oc1ccnc2c1c(I)cn2S(=O)(=O)c1ccccc1
92 | 140 to 143 °C | CCCCC(=O)Nc1c(C(=O)c2ccccc2)[nH]c2cc(Cl)ccc12
93 | 72 to 73 °C | CCOC(=O)c1ccc(-c2csc(-c3ccccc3)n2)cc1
94 | 82 to 95 °C | COc1cc(C2CCN(CC(O)CF)CC2)ccc1Nc1ncc2ccc(-c3ccccc3N(C)S(C)(=O)=O)n2n1 (centres undefined)
95 | 133 to 134 °C | O=C(CCc1ccccc1)N[C@H](Cc1ccc(C(F)(F)F)cc1)[C@@H](O)c1ccc(Oc2ccccc2)cc1 (racemic)
96 | 190 to 192 °C | CNC(=O)c1ccc(NC(=O)Oc2ccccc2)cc1
97 | 49 to 50 °C | CCCCCCCCCCCCCCOc1ccc(OCc2ccccc2)c(C(=O)N(CC(=O)OCC)CC(=O)OCC)c1
98 | 101 °C | CCCCc1oc2ccc([N+](=O)[O-])cc2c1S(=O)(=O)c1ccc(OCCCBr)cc1
99 | 180 °C | CCOc1ccc2[nH]c(C(=O)O)cc2c1

Source: a melting point compilation (Tetko et al.; mined from patent text by program, amines drawn as free bases though some values may be those of a salt)
